Data on one compound can be found in ChEMBL document CHEMBL5725383, “Ethynyl derivatives” (2017).

What is called EC50 is the concentration giving half of the maximal effect. A high value points to a less potent agent.

In this assay the target is Metabotropic glutamate receptor 4 (Homo sapiens, UniProt Q14833). The assay is described as follows: Ca2+ Mobilization In Vitro Assay: About 24 hrs before an experiment, 5×10^4 cells/well were seeded in poly-D-lysine coated, black/clear-bottomed 96-well plates. The cells were loaded with 2.5 μM Fluo-4AM in loading buffer (1×HBSS, 20 mM HEPES) for 1 hr at 37° C. and washed five times with loading buffer. The cells were transferred into a Functional Drug Screening System 7000 (Hamamatsu, Paris, France), and 11 half logarithmic serial dilutions of test compound at 37° C. were added and the cells were incubated for 10-30 min. with on-line recording of fluorescence. Following this pre-incubation step, the agonist (2S)-2-amino-4-phosphonobutanoic acid (L-AP4) was added to the cells at a concentration corresponding to EC20 with on-line recording of fluorescence; in order to account for day-to-day variations in the responsiveness of cells, the EC20 of L-AP4 was determined immediately ahead of each experiment by recording of a full dose-response curve of L-AP4. Responses were measured as peak increase in fluorescence minus basal (i.e. fluorescence without addition of L-AP4), normalized to the maximal stimulatory effect obtained with saturating concentrations of L-AP4. Graphs were plotted with the % maximal stimulatory using XLfit, a curve fitting program that iteratively plots the data using Levenburg Marquardt algorithm. […].
Chain of Metabotropic glutamate receptor 4 (Q14833 whole entry): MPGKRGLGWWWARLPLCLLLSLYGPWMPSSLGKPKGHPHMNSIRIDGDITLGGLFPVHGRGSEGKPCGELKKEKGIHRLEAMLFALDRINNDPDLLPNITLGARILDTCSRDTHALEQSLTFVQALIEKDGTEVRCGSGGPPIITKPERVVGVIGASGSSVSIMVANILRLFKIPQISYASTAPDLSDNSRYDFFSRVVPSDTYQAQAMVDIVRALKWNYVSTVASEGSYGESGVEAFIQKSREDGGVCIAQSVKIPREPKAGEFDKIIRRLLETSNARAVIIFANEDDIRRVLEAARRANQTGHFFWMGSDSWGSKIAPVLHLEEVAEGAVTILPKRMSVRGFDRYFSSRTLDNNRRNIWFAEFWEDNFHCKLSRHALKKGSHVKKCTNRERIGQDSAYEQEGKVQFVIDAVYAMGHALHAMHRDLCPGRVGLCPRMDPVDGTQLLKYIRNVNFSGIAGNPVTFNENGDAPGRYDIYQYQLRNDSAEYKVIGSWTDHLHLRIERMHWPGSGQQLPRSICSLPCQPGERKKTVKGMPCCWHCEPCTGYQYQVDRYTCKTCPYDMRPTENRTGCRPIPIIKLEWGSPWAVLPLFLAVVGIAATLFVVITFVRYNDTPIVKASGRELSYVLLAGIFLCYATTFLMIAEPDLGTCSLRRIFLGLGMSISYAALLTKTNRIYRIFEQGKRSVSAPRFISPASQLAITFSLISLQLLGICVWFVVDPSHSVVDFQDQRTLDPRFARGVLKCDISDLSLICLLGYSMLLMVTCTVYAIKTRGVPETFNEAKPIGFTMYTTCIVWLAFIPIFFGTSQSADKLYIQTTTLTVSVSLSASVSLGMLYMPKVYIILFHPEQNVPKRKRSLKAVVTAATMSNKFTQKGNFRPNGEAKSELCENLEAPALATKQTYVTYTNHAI

On to `O=c1[nH]c2ncsc2c(=O)n1-c1c(F)cc(C#Cc2ccccc2)cc1F`, for which the concentration giving a half-maximal response (EC50) worked out at 187 nM.
